Literature values in publication PMC8354143, “Cy3-RgIA-5727 Labels and Inhibits α9-Containing nAChRs of Cochlear Hair Cells” (Frontiers in Cellular Neuroscience, 2021).

Experiments:
[1] = system: voltage-gated calcium channels in the efferent terminals

Substance | time course of block of voltage-gated calcium channels [1] [min] | antagonism of α9-containing nAChRs (α9-containing nAChRs)
ω-conotoxin GVIA | 15 to 20 | –
α-Conotoxin-RgIA | – | specific and potent antagonist of α9-containing nAChRs
